Results published in ChEMBL document CHEMBL1130753, “Solid phase synthesis of a biased mini tetrapeptoid-library for the discovery of monodentate ITAM mimics as ZAP-70 inhibitors” (Bioorg Med Chem Lett, 1998).
Where a SMILES comes first, the peptide text is derived from it. [ ]: non-standard residue; d: D form. The star is where a group is joined. Gly(N-Bn(4-CH2PO3H2)) = O=C(O)CNCc1ccc(CP(=O)(O)O)cc1; N(3-phenylpropyl)Gly = O=C(O)CNCCCc1ccccc1; Hexanoyl = CCCCCC(=O)*; Nleu = CC(C)CNCC(=O)O; NEtG = CCNCC(=O)O

How the values were obtained:
[1] = biological target: Tyrosine-protein kinase Lck (Homo sapiens) (UniProt P06239); assay: Compound was tested for its antagonistic activity at 100 uM concentration against SH2 domain of LCK protein.; format: functional
[2] = biological target: Growth factor receptor-bound protein 2 (Homo sapiens) (UniProt P62993); assay: Antagonistic activity at 100 uM concentration against SH-2 domain of growth factor receptor binding protein (Grb2).
[3] = biological target: T1, Tyrosine-protein kinase ZAP-70 (Homo sapiens, UniProt P43403); assay: Inhibition of binding to human ZAP-70 SH2 domain
T1 sequence (P43403 whole entry): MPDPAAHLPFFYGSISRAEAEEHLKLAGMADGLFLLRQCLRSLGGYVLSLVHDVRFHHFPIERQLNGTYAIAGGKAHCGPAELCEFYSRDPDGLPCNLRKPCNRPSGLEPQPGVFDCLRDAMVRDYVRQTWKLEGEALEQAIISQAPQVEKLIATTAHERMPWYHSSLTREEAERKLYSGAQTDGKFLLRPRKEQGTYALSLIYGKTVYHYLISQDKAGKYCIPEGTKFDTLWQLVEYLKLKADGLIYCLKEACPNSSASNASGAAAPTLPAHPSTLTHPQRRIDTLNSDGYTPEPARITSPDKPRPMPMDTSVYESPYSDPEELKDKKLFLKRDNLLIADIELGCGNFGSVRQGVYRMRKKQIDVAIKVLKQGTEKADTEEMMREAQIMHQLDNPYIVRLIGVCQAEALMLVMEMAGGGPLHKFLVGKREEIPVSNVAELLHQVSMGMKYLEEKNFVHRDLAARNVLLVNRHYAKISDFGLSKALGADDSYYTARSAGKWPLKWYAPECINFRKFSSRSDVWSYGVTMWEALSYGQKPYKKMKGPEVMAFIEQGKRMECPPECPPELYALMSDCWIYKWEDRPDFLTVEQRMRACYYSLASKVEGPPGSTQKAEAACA

Tyrosine-protein kinase Lck (Homo sapiens), sequence (P06239 2-509 limits assumed): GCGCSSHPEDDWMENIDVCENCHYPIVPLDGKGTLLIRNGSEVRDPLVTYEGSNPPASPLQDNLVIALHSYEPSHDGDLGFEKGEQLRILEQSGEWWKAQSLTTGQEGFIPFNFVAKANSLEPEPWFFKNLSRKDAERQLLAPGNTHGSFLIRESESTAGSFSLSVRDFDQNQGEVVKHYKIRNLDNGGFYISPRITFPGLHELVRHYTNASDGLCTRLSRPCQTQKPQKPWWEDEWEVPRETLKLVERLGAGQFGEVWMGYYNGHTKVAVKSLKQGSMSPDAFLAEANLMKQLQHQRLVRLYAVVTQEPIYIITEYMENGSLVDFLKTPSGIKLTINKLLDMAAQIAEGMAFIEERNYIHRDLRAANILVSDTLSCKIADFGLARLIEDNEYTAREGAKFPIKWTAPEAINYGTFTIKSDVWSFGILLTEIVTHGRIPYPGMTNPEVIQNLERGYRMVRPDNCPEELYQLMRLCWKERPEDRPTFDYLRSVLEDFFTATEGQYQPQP

inhibition [1] [%]	inhibition [2] [%]	IC50 [3] [µM]	Structure (SMILES)
0	2	–	CCCCCC(=O)N(CC(=O)N(CC)CC(=O)N(CC(=O)N(CC)CC(N)=O)CC(C)C)Cc1ccc(CP(=O)(O)O)cc1 (Hexanoyl-[Gly(N-Bn(4-CH2PO3H2))][NEtG][Nleu][NEtG]-NH2)
16	0	–	CCCCCC(=O)N(CC(=O)N(CCCc1ccccc1)CC(=O)N(CC(=O)N(CC(N)=O)CC(C)C)CC(C)C)Cc1ccc(CP(=O)(O)O)cc1 (Hexanoyl-[Gly(N-Bn(4-CH2PO3H2))][N(3-phenylpropyl)Gly][Nleu][Nleu]-NH2)
15	2	–	CCCCCC(=O)N(CC(=O)N(CC)CC(=O)N(CC(=O)N(CCCc1ccccc1)CC(N)=O)CC(C)C)Cc1ccc(CP(=O)(O)O)cc1 (Hexanoyl-[Gly(N-Bn(4-CH2PO3H2))][NEtG][Nleu][N(3-phenylpropyl)Gly]-NH2)
61	15	–	CCCCCC(=O)N(CC(=O)N(CC(=O)N(CC)CC(=O)N(CC)CC(N)=O)CC(C)C)Cc1ccc(CP(=O)(O)O)cc1 (Hexanoyl-[Gly(N-Bn(4-CH2PO3H2))][Nleu][NEtG][NEtG]-NH2)
4	5	–	CCCCCC(=O)N(CC(=O)N(CC(=O)N(CCCc1ccccc1)CC(=O)N(CC)CC(N)=O)CC(C)C)Cc1ccc(CP(=O)(O)O)cc1 (Hexanoyl-[Gly(N-Bn(4-CH2PO3H2))][Nleu][N(3-phenylpropyl)Gly][NEtG]-NH2)
6	8	–	CCCCCC(=O)N(CC(=O)N(CC)CC(=O)N(CC(=O)N(CC(N)=O)CC(C)C)CC(C)C)Cc1ccc(CP(=O)(O)O)cc1 (Hexanoyl-[Gly(N-Bn(4-CH2PO3H2))][NEtG][Nleu][Nleu]-NH2)
1	5	–	CCCCCC(=O)N(CC(=O)N(CC(=O)N(CC(=O)N(CCCc1ccccc1)CC(N)=O)CC(C)C)CC(C)C)Cc1ccc(CP(=O)(O)O)cc1 (Hexanoyl-[Gly(N-Bn(4-CH2PO3H2))][Nleu][Nleu][N(3-phenylpropyl)Gly]-NH2)
3	4	–	CCCCCC(=O)N(CC(=O)N(CC)CC(=O)N(CCCc1ccccc1)CC(=O)N(CC(N)=O)CC(C)C)Cc1ccc(CP(=O)(O)O)cc1 (Hexanoyl-[Gly(N-Bn(4-CH2PO3H2))][NEtG][N(3-phenylpropyl)Gly][Nleu]-NH2)
7	8	–	CCCCCC(=O)N(CC(=O)N(CC)CC(=O)N(CCCc1ccccc1)CC(=O)N(CC)CC(N)=O)Cc1ccc(CP(=O)(O)O)cc1 (Hexanoyl-[Gly(N-Bn(4-CH2PO3H2))][NEtG][N(3-phenylpropyl)Gly][NEtG]-NH2)
1	3	–	CCCCCC(=O)N(CC(=O)N(CC(=O)N(CCCc1ccccc1)CC(=O)N(CC(N)=O)CC(C)C)CC(C)C)Cc1ccc(CP(=O)(O)O)cc1 (Hexanoyl-[Gly(N-Bn(4-CH2PO3H2))][Nleu][N(3-phenylpropyl)Gly][Nleu]-NH2)
4	20	> 100	CCCCCC(=O)N(CC(=O)N(CCCc1ccccc1)CC(=O)N(CC)CC(=O)N(CCCc1ccccc1)CC(N)=O)Cc1ccc(CP(=O)(O)O)cc1 (Hexanoyl-[Gly(N-Bn(4-CH2PO3H2))][N(3-phenylpropyl)Gly][NEtG][N(3-phenylpropyl)Gly]-NH2)
3	0	–	CCCCCC(=O)N(CC(=O)N(CC(=O)N(CCCc1ccccc1)CC(=O)N(CCCc1ccccc1)CC(N)=O)CC(C)C)Cc1ccc(CP(=O)(O)O)cc1 (Hexanoyl-[Gly(N-Bn(4-CH2PO3H2))][Nleu][N(3-phenylpropyl)Gly][N(3-phenylpropyl)Gly]-NH2)
7	3	–	CCCCCC(=O)N(CC(=O)N(CCCc1ccccc1)CC(=O)N(CC)CC(=O)N(CC(N)=O)CC(C)C)Cc1ccc(CP(=O)(O)O)cc1 (Hexanoyl-[Gly(N-Bn(4-CH2PO3H2))][N(3-phenylpropyl)Gly][NEtG][Nleu]-NH2)
1	4	–	CCCCCC(=O)N(CC(=O)N(CC(=O)N(CC(=O)N(CC)CC(N)=O)CC(C)C)CC(C)C)Cc1ccc(CP(=O)(O)O)cc1 (Hexanoyl-[Gly(N-Bn(4-CH2PO3H2))][Nleu][Nleu][NEtG]-NH2)
32	32	> 100	CCCCCC(=O)N(CC(=O)N(CCCc1ccccc1)CC(=O)N(CC(=O)N(CCCc1ccccc1)CC(N)=O)CC(C)C)Cc1ccc(CP(=O)(O)O)cc1 (Hexanoyl-[Gly(N-Bn(4-CH2PO3H2))][N(3-phenylpropyl)Gly][Nleu][N(3-phenylpropyl)Gly]-NH2)
0	2	–	CCCCCC(=O)N(CC(=O)N(CC)CC(=O)N(CCCc1ccccc1)CC(=O)N(CCCc1ccccc1)CC(N)=O)Cc1ccc(CP(=O)(O)O)cc1 (Hexanoyl-[Gly(N-Bn(4-CH2PO3H2))][NEtG][N(3-phenylpropyl)Gly][N(3-phenylpropyl)Gly]-NH2)
4	6	–	CCCCCC(=O)N(CC(=O)N(CC)CC(=O)N(CC)CC(=O)N(CC)CC(N)=O)Cc1ccc(CP(=O)(O)O)cc1 (Hexanoyl-[Gly(N-Bn(4-CH2PO3H2))][NEtG][NEtG][NEtG]-NH2)
6	3	–	CCCCCC(=O)N(CC(=O)N(CCCc1ccccc1)CC(=O)N(CCCc1ccccc1)CC(=O)N(CC(N)=O)CC(C)C)Cc1ccc(CP(=O)(O)O)cc1 (Hexanoyl-[Gly(N-Bn(4-CH2PO3H2))][N(3-phenylpropyl)Gly][N(3-phenylpropyl)Gly][Nleu]-NH2)
3	6	–	CCCCCC(=O)N(CC(=O)N(CC(=O)N(CC(=O)N(CC(N)=O)CC(C)C)CC(C)C)CC(C)C)Cc1ccc(CP(=O)(O)O)cc1 (Hexanoyl-[Gly(N-Bn(4-CH2PO3H2))][Nleu][Nleu][Nleu]-NH2)
10	2	–	CCCCCC(=O)N(CC(=O)N(CC(=O)N(CC)CC(=O)N(CCCc1ccccc1)CC(N)=O)CC(C)C)Cc1ccc(CP(=O)(O)O)cc1 (Hexanoyl-[Gly(N-Bn(4-CH2PO3H2))][Nleu][NEtG][N(3-phenylpropyl)Gly]-NH2)
4	5	–	CCCCCC(=O)N(CC(=O)N(CCCc1ccccc1)CC(=O)N(CC)CC(=O)N(CC)CC(N)=O)Cc1ccc(CP(=O)(O)O)cc1 (Hexanoyl-[Gly(N-Bn(4-CH2PO3H2))][N(3-phenylpropyl)Gly][NEtG][NEtG]-NH2)
5	6	–	CCCCCC(=O)N(CC(=O)N(CCCc1ccccc1)CC(=O)N(CC(=O)N(CC)CC(N)=O)CC(C)C)Cc1ccc(CP(=O)(O)O)cc1 (Hexanoyl-[Gly(N-Bn(4-CH2PO3H2))][N(3-phenylpropyl)Gly][Nleu][NEtG]-NH2)
9	30	–	CCCCCC(=O)N(CC(=O)N(CC(=O)N(CC)CC(=O)N(CC(N)=O)CC(C)C)CC(C)C)Cc1ccc(CP(=O)(O)O)cc1 (Hexanoyl-[Gly(N-Bn(4-CH2PO3H2))][Nleu][NEtG][Nleu]-NH2)
2	2	–	CCCCCC(=O)N(CC(=O)N(CC)CC(=O)N(CC)CC(=O)N(CC(N)=O)CC(C)C)Cc1ccc(CP(=O)(O)O)cc1 (Hexanoyl-[Gly(N-Bn(4-CH2PO3H2))][NEtG][NEtG][Nleu]-NH2)
4	5	–	CCCCCC(=O)N(CC(=O)N(CCCc1ccccc1)CC(=O)N(CCCc1ccccc1)CC(=O)N(CCCc1ccccc1)CC(N)=O)Cc1ccc(CP(=O)(O)O)cc1 (Hexanoyl-[Gly(N-Bn(4-CH2PO3H2))][N(3-phenylpropyl)Gly][N(3-phenylpropyl)Gly][N(3-phenylpropyl)Gly]-NH2)
1	4	–	CCCCCC(=O)N(CC(=O)N(CC)CC(=O)N(CC)CC(=O)N(CCCc1ccccc1)CC(N)=O)Cc1ccc(CP(=O)(O)O)cc1 (Hexanoyl-[Gly(N-Bn(4-CH2PO3H2))][NEtG][NEtG][N(3-phenylpropyl)Gly]-NH2)
4	4	–	CCCCCC(=O)N(CC(=O)N(CCCc1ccccc1)CC(=O)N(CCCc1ccccc1)CC(=O)N(CC)CC(N)=O)Cc1ccc(CP(=O)(O)O)cc1 (Hexanoyl-[Gly(N-Bn(4-CH2PO3H2))][N(3-phenylpropyl)Gly][N(3-phenylpropyl)Gly][NEtG]-NH2)
